Test systems include COLO 205; ACHN; UACC-257; SN12C; RPMI-8226; MDA-N; M14; U-251; LOX IMVI; PC-3; OVCAR-4; SF-268; OVCAR-8; A549; A498; NCI-H460; MOLT-4; SK-MEL-28; SNB-19; BT-549.
Experiment in all cases: NCI anticancer screen, dose series, 48 h

Molecules are shown by their SMILES.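 Protocol summary: plate cells (96-well), add compound at 5 concentrations, incubate 48 h, interpolate endpoints linearly. Here, GI50 denotes the concentration required for 50% inhibition of growth.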 The source made the active and inactive calls. Cut-off read from the data, not from the text of the source: active = GI50 up to about 1.1 µM and inactive = higher. Bounds are passed on as bounds.

Take `COCCNC1CCC(=O)c2[nH]c3ccccc3c21` (stereo not given): the GI50 in the assay with COLO 205, with ACHN, in the assay on UACC-257, in the assay on SN12C, in the assay on RPMI-8226 and in the assay on MDA-N was > 100 µM (inactive) in each case. Moreover, the GI50 with M14 is > 100 µM (inactive); in the assay on U-251 it was > 100 µM (inactive); with LOX IMVI, 94.4 µM (inactive); in the assay with PC-3 it was > 100 µM (inactive); with OVCAR-4, > 100 µM (inactive); with SF-268, > 100 µM (inactive). In addition, the GI50 in the assay on OVCAR-8, with A549, in the assay with A498, in the assay with NCI-H460, in the assay on MOLT-4 and with SK-MEL-28 was > 100 µM (inactive) each time. Further, the GI50 with SNB-19 and in the assay with BT-549 was > 100 µM (inactive) in each case.

On to `Cc1ccc2c(c1)-c1c(C#N)c(N)nc(-c3ccc(Cl)cc3)c1CCS2(=O)=O`, for which the GI50 in the assay with COLO 205 was 4.55 µM (inactive); with ACHN it was 8.77 µM (inactive); with UACC-257, 5.24 µM (inactive); with SN12C it was 10.9 µM (inactive); in the assay with RPMI-8226 it was 3.66 µM (inactive); in the assay on MDA-N, 1.65 µM (inactive). Further, the GI50 in the assay with M14 is 5.21 µM (inactive); in the assay with U-251, 7.14 µM (inactive); in the assay with LOX IMVI, 10.1 µM (inactive); in the assay on PC-3, 5.48 µM (inactive); with OVCAR-4 it was > 83 µM (inactive); in the assay with SF-268, 20.1 µM (inactive). The GI50 is 14.8 µM (inactive) with OVCAR-8; 5.31 µM (inactive) in the assay with A549; 17.2 µM (inactive) in the assay with A498; 3.85 µM (inactive) in the assay with NCI-H460; 4.99 µM (inactive) in the assay on MOLT-4; 20.6 µM (inactive) with SK-MEL-28. Moreover, the GI50 was 13.2 µM (inactive) in the assay on SNB-19 and 13.6 µM (inactive) with BT-549.

`Clc1ccc(-c2nc3cc(C45CC6CC(CC(C6)C4)C5)ccc3[nH]2)cc1`: the GI50 was 7.43 µM (inactive) with COLO 205; 51.8 µM (inactive) in the assay on ACHN; 10.7 µM (inactive) in the assay on UACC-257; 50.5 µM (inactive) in the assay on SN12C; 4.21 µM (inactive) in the assay with RPMI-8226; 32.1 µM (inactive) in the assay with MDA-N. Moreover, the GI50 in the assay with M14 was 17 µM (inactive); in the assay with U-251, 20.1 µM (inactive); with LOX IMVI, 18.3 µM (inactive); in the assay on PC-3 it was 14.3 µM (inactive); with OVCAR-4, 60.5 µM (inactive); with SF-268 it was > 100 µM (inactive). The GI50 was 28.7 µM (inactive) in the assay on OVCAR-8; 14.8 µM (inactive) in the assay with A549; > 95.7 µM (inactive) in the assay on A498; 17.6 µM (inactive) in the assay with NCI-H460; 0.551 µM (active) in the assay on MOLT-4; 75 µM (inactive) with SK-MEL-28. Further, the GI50 was 44.4 µM (inactive) in the assay with SNB-19 and 56.6 µM (inactive) in the assay with BT-549.

In the case of `O=C(N[C@H]1CCC[C@H]1C(=O)Nc1ccc(C(F)(F)F)cc1)OCc1ccccc1`, the GI50 in the assay with COLO 205, in the assay with ACHN, in the assay with UACC-257, in the assay on SN12C, in the assay on RPMI-8226 and in the assay on MDA-N was > 100 µM (inactive) throughout. The GI50 with M14, in the assay on U-251, in the assay on LOX IMVI, in the assay on PC-3, in the assay on OVCAR-4 and in the assay on SF-268 was > 100 µM (inactive) throughout. In addition, the GI50 in the assay on OVCAR-8, in the assay with A549, in the assay on A498, in the assay with NCI-H460, in the assay with MOLT-4 and in the assay with SK-MEL-28 was > 100 µM (inactive) throughout. The GI50 in the assay with SNB-19 and with BT-549 was > 100 µM (inactive) throughout.

`CCCCCCSc1nc(COC(=O)NC)c(COC(=O)NC)n1C`: the GI50 in the assay with COLO 205, in the assay with ACHN, with UACC-257, in the assay on SN12C, in the assay with RPMI-8226 and in the assay with MDA-N was > 100 µM (inactive) throughout. In addition, the GI50 in the assay with M14, in the assay with U-251, in the assay on LOX IMVI, in the assay with PC-3, in the assay with OVCAR-4 and in the assay on SF-268 was > 100 µM (inactive) in each case. The GI50 in the assay with OVCAR-8, in the assay with A549, with A498, in the assay on NCI-H460, in the assay with MOLT-4 and in the assay with SK-MEL-28 was > 100 µM (inactive) each time. Besides, the GI50 in the assay with SNB-19 and in the assay with BT-549 was > 100 µM (inactive) throughout.

On to `COc1ccc([C@@]23Oc4cc(OC)cc(OC)c4[C@]2(O)[C@H](O)[C@H](C(=O)N(C)C)[C@H]3c2ccccc2)cc1` [ROCAGLAMIDE], for which the GI50 is 0.00647 µM (active) in the assay with COLO 205; 0.00344 µM (active) in the assay on ACHN; 0.0184 µM (active) in the assay on UACC-257; 0.00815 µM (active) with SN12C; 0.00555 µM (active) with RPMI-8226; 0.00355 µM (active) with MDA-N. Besides, the GI50 in the assay on M14 was 0.00327 µM (active); with U-251, 0.00605 µM (active); with LOX IMVI it was 0.00191 µM (active); in the assay on PC-3 it was 0.00836 µM (active); in the assay on OVCAR-4, 0.0206 µM (active); with SF-268, 0.00849 µM (active). The GI50 was 0.0109 µM (active) in the assay on OVCAR-8; 0.00353 µM (active) in the assay on A549; 0.00791 µM (active) with A498; 0.0027 µM (active) with NCI-H460; 0.00192 µM (active) in the assay on MOLT-4; 0.00689 µM (active) with SK-MEL-28. Further, the results for the GI50 in the assay on SNB-19 and in the assay with BT-549 were 0.267 µM (active) and 0.0583 µM (active), respectively.

Turning to `N#Cc1c(N2CCN(c3ccc([N+](=O)[O-])cc3)CC2)[n+]([O-])c2ccc(Cl)cc2[n+]1[O-]`, the GI50 with COLO 205 was 3.24 µM (inactive); in the assay with ACHN, 0.789 µM (active); in the assay with UACC-257, 2.65 µM (inactive); in the assay on SN12C it was 0.966 µM (active); in the assay on RPMI-8226, 0.705 µM (active); in the assay on MDA-N, 1.75 µM (inactive). In addition, the GI50 was 1.56 µM (inactive) with M14; 0.738 µM (active) in the assay on U-251; 0.459 µM (active) in the assay with LOX IMVI; 0.836 µM (active) in the assay on PC-3; 1.18 µM (inactive) with OVCAR-4; 1.86 µM (inactive) in the assay on SF-268. For the same compound, the GI50 in the assay on OVCAR-8 is 1.11 µM (active); in the assay with A549, 2.02 µM (inactive); in the assay on A498, 0.575 µM (active); in the assay with NCI-H460 it was 0.0644 µM (active); with MOLT-4, 1.18 µM (inactive); with SK-MEL-28 it was 4.52 µM (inactive). The GI50 with SNB-19 is 2.81 µM (inactive); with BT-549, 0.264 µM (active).

Take `CC12OOC(c3ccccc31)c1c2ccc2ccccc12` (stereo not given): the GI50 is 1.71 µM (inactive) in the assay with COLO 205; 1.73 µM (inactive) in the assay with ACHN; 13.4 µM (inactive) with UACC-257; 15.8 µM (inactive) in the assay on SN12C; 2.45 µM (inactive) with RPMI-8226; 5.53 µM (inactive) in the assay with MDA-N. The GI50 is 9.23 µM (inactive) in the assay on M14; 14.7 µM (inactive) in the assay with U-251; 2.12 µM (inactive) in the assay with LOX IMVI; 5.66 µM (inactive) in the assay on PC-3; 0.8 µM (active) with OVCAR-4; 11.2 µM (inactive) in the assay with SF-268. Moreover, the GI50 is 6.71 µM (inactive) in the assay with OVCAR-8; 3.73 µM (inactive) in the assay with A549; 17.6 µM (inactive) with A498; 2.26 µM (inactive) in the assay with NCI-H460; 1.6 µM (inactive) with MOLT-4; 13.8 µM (inactive) in the assay on SK-MEL-28. Also, the GI50 in the assay with SNB-19 is 16.7 µM (inactive); in the assay with BT-549 it was 10.4 µM (inactive).

In the case of `COC(=O)[C@@H]1[C@H]2CC[C@]3(C)[C@@H](OC(C)=O)CC[C@H]3[C@@H]2CC[C@H]1C1(C)SCCS1`, the GI50 with COLO 205 is 13.5 µM (inactive); in the assay with ACHN it was 37.2 µM (inactive); in the assay with UACC-257, 25.2 µM (inactive); in the assay with SN12C, 18.5 µM (inactive); in the assay on RPMI-8226, 19.3 µM (inactive); in the assay on MDA-N, 22 µM (inactive). Further, the GI50 in the assay on M14 is 21.5 µM (inactive); with U-251 it was 23.6 µM (inactive); in the assay with LOX IMVI, 19.4 µM (inactive); with PC-3 it was 26.8 µM (inactive); in the assay with OVCAR-4, 25.1 µM (inactive); in the assay on SF-268 it was 44.4 µM (inactive). Moreover, the GI50 was 25 µM (inactive) in the assay on OVCAR-8; 25.1 µM (inactive) in the assay with A549; 57.5 µM (inactive) in the assay with A498; 29.3 µM (inactive) in the assay with NCI-H460; 24.8 µM (inactive) with MOLT-4; 34.7 µM (inactive) with SK-MEL-28. The GI50 in the assay with SNB-19 was 50.5 µM (inactive); in the assay with BT-549 it was 18.4 µM (inactive).

Consider `CSc1ccc(/C=C2\N=C(c3ccccc3)N(c3nc4cc(Cl)c(F)cc4s3)C2=O)cc1`, for which the GI50 in the assay with COLO 205 was 54.5 µM (inactive); in the assay with ACHN it was 36.4 µM (inactive); in the assay with UACC-257, > 100 µM (inactive); in the assay with SN12C, 36.7 µM (inactive); in the assay on RPMI-8226, 26.1 µM (inactive); with MDA-N, 30.3 µM (inactive). Moreover, the GI50 was 58.3 µM (inactive) in the assay on M14; 19.6 µM (inactive) in the assay with U-251; 20.3 µM (inactive) with LOX IMVI; 35.2 µM (inactive) with PC-3; 24.7 µM (inactive) in the assay with OVCAR-4; 32.3 µM (inactive) in the assay with SF-268. Further, the GI50 is 20 µM (inactive) in the assay on OVCAR-8; 33.7 µM (inactive) in the assay on A549; 43.5 µM (inactive) in the assay with A498; 57.3 µM (inactive) in the assay on NCI-H460; 29.6 µM (inactive) with MOLT-4; > 100 µM (inactive) in the assay on SK-MEL-28. Moreover, the GI50 in the assay with SNB-19 was 25.1 µM (inactive); in the assay on BT-549 it was 32.8 µM (inactive).

The values above are taken from ChEMBL document CHEMBL1201862, “PubChem BioAssay data set” (2004).
